These results are taken from patent publication US4514408A, “N-substituted nicotinamide 1-oxide as histamine H2 receptor blockers” (Sanofi, priority 1982, dated 1985).

Test [1] deals with T1, gastric histamine H2 receptors (Rattus norvegicus, UniProt P25102).
T1 construct: the gastric secretion is measured by perfusion of a physiological solution at a constant speed in the stomach of the animal; from tissue; host or cells: stomach of the living atropinised rat (in vivo, endogenous receptor)
Briefly: antisecretory activity: antagonism of gastric hypersecretion induced by histamine in the atropinised rat (Ghosh and Schild modified according to Black). Conditions: for ED50: intravenous, single administration, histamine i.v. infusion 15 mcmol/kg/hour, atropinised rat, read-out: ID50 (dose which inhibits by 50% the gastric hypersecretion induced by histamine). The class given is in vivo. As for the experimental part: According to this test, a gastric acid hypersecretion is induced by intravenous infusion of a sub-maximal dose of histamine equivalent to 15 mcmol/kg/hour and the gastric secretion is measured by perfusion of a physiological solution at a constant speed in the stomach of the animal.
Cimetidine and ranitidine, which represent standard compounds, as well as:
the compound of formula [drawing 5] as oxalate, and […]

In another test the test system is histamine H2 receptors. Conditions: i.v.; cited from earlier work.
Setting [2] is: from ID50, i.v., cimetidine = 1.

T1 sequence (P25102 whole entry, the tested form may be a part): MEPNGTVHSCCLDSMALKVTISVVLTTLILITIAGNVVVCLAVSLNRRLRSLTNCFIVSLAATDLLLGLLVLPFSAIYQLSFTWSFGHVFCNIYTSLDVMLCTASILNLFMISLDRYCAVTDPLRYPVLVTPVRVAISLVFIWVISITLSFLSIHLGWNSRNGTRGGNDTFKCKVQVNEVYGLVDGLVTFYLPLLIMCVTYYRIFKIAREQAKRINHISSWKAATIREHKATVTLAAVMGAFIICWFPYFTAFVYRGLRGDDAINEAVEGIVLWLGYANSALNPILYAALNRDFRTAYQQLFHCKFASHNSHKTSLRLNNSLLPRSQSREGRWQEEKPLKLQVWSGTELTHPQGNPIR

Consider `O=C(NCCCOc1cccc(CN2CCCCC2)c1)c1ccc[n+]([O-])c1` [SR 58017A, N-[3-(3-piperidinomethylphenoxy)propyl]-3-pyridinecarboxamide 1-oxide sesquioxalate], for which the “Relative potency (cimetidine = 1)” value in test [1] (setting [2]) amounted to 8.64. For the same compound, in test [1], the ED50 came to 0.11 µmol/kg.
For `O=C(NCCCOc1cccc(CN2CCCC2)c1)c1cccnc1` [Compound V, reference compound], in test [1] (setting [2]), the “Relative potency (cimetidine = 1)” value is given as 0.43. Moreover, the ED50 in test [1] was 2.22 µmol/kg; with histamine H2 receptors, 1.25 mg/kg.
`O=C(NCCCOc1cc(CN2CCCCC2)ccn1)c1ccc[n+]([O-])c1` [SR 58065, N-[3-(4-piperidinomethylpyrid-2-yloxy)propyl]3-pyridinecarboxamide 1-oxide]: in test [1] (setting [2]), the “Relative potency (cimetidine = 1)” value came out at 1.48. Further, the ED50 in test [1] was 0.64 µmol/kg.
For `CCCCN(CCCC)Cc1cccc(OCCCNC(=O)c2ccc[n+]([O-])c2)c1` [SR 58062, N-[3-(3-di-n-butylaminomethylphenoxy)propyl]-3-pyridinecarboxamide 1-oxide] the same measures were 1.19 and 0.8 µmol/kg.
Turning to `CNC(=C[N+](=O)[O-])NCCSCc1ccc(CN(C)C)o1` [Ranitidine, N-[2-[[5-[(dimethylamino)methyl]furfuryl]thio]ethyl]-N'-methyl-2-nitro-1,1-ethenediamine, reference compound], the “Relative potency (cimetidine = 1)” value in test [1] (rat, in vivo, iv) is 3.80.
For the compound `CC1CCCN(Cc2cccc(OCCCNC(=O)c3ccc[n+]([O-])c3)c2)C1` (centres unmarked) [SR 58042, N-[3-[3-(3-methylpiperidinomethyl)phenoxy]propyl]-3-pyridinecarboxamide1-oxide], the “Relative potency (cimetidine = 1)” value in test [1] (setting [2]) came to 6.78. In addition, in test [1], the ED50 came to 0.14 µmol/kg.
The matching figures for `O=C(NCCCOc1cccc(CN2CCC(O)CC2)c1)c1ccc[n+]([O-])c1` [SR 58067, N-[3-[3-(4-hydroxypiperidinomethyl)phenoxy]propyl]-3-pyridinecarboxamide 1-oxide]: 1.34 and 0.71 µmol/kg.
On to `O=CNCCCOc1cccc(CN2CCCC2)c1` [Compound IV, reference compound], for which the “Relative potency (cimetidine = 1)” value in test [1] (setting [2]) is on record as 0.47. Moreover, the ED50 is 2.01 µmol/kg in test [1] and 0.84 mg/kg in the test on histamine H2 receptors.
Regarding `O=C(NCCCOc1cccc(CN2CCCC2)c1)c1ccc[n+]([O-])c1` [CM 57891, N-[3-(3-pyrrolidinomethylphenoxy)propyl]-3-pyridinecarboxamide 1-oxide], in test [1] (setting [2]), the “Relative potency (cimetidine = 1)” value is recorded as 2.43. Also, in test [1], the ED50 is 0.39 µmol/kg.
On to `CC1CCN(Cc2cccc(OCCCNC(=O)c3ccc[n+]([O-])c3)c2)CC1` [SR 58037, N-[3-[3-(4-methylpiperidinomethyl)phenoxy]propyl]-3-pyridinecarboxamide 1-oxide], for which, in test [1] (setting [2]), the “Relative potency (cimetidine = 1)” value is reported as 7.31. Besides, in test [1], the ED50 turned out to be 0.13 µmol/kg.
For `O=C(NCCCOc1cccc(CN2CCCCCC2)c1)c1ccc[n+]([O-])c1` [SR 58052, N-[3-(3-hexamethyleneiminomethylphenoxy)propyl]-3-pyridinecarboxamide 1-oxide] the same measures were 3.80 and 0.25 µmol/kg.
